From the NIST ThermoML archive (doi:10.1016/j.jct.2008.04.005)
Numbers after ± are expanded uncertainties.

Experiment: molar enthalpy of vaporization or sublimation
Conditions: 298.15 K, Liquid

molar enthalpy (Calvet microcalorimetry) | molar enthalpy (Vacuum drop calorimetry) | SMILES
40.2 ± 1.8 kJ/mol | – | Cc1ccc(C)s1 [2,5-dimethylthiophene]
– | 61.3 ± 2.6 kJ/mol | CC(=O)c1cc(C)sc1C [3-acetyl-2,5-dimethylthiophene]
